From patent publication US12031150B2, “Methods, compositions and kits for increasing genome editing efficiency” (Vertex Pharmaceuticals Incorporated, priority 2016, dated 2024)
Where “and” joins values, the source holds several entries; their conditions need not be identical. Identical values can stand only once. Entries after “also recorded” stand apart in the source; their conditions may differ.

Legend:
[1] = tested on: HDR repair pathway in the HEK293-EGIP cell line; assay: Traffic light reporter (TLR) assay, HDR efficiency by FACS (GFP positive cells); type: cell-based, human; details: for FACS Analysis - Percent HDR enhancement (gRNA-Cas9 + donor), Mean / FACS Analysis - Percent HDR enhancement (gRNA-Cas9 + donor), single replicate: 2.5 uM compound, HEK293-EGIP; for FACS Analysis - Percent HDR enhancement (gRNA-Cas9 + donor), Mean: mean of three technical replicates; for FACS Analysis - Percent HDR enhancement (gRNA-Cas9 + donor), single replicate: technical replicates 1-3 of one experiment; for fold increase in the amount of CRISPR-genome edited cells (HDR enhancement): compared to transfection in the absence of compound, Table 1, FIG. 2C; for GFP positive cells after transfection of donor repair template and gRNA-Cas9 (qualitative): FIG. 2A FACS dot plots
Description: Traffic light reporter (TLR) assay: The HEK293-EGIP (Enhanced Green Fluorescent inhibited Protein) stable cell line was purchased from System Biosciences (SBI). The HEK293-EGIP cell line harbors a disrupted GPP coding sequence with a stop codon and a 53-bp genomic fragment from the AAVS1 locus. Cells were maintained in DMEM (Life Technologies, cat. no. 10313-039) with high glucose (Life Technologies, cat. no. 10313-039) supplemented with 10% heat-inactivated FBS (Fetal Bovine Serum, Expression Systems Inc.), Glutamax and Penicillin+Streptomycin and cultured at 37° C. and 5% CO2.
Cell transfection and NHEJ inhibitor treatment: The HEK293-EGIP stable cells were transfected with the two-in-one gRNA/CRISPR-Cas9 dual plasmid vector, plasmid repair donor (both plasmids from System Biosciences). Transfection was carried out using the Amaxa nucleofector system (Lonza) following manufacturer's protocol. After 16 hours, cells were treated with Compound 1 and Scr7 (Excess Bioscience; no. M60082-2s) at various concentrations, including 1 μM, 2.5 μM, 5 μM and 10 μM of compound. The structure of Scr7 is shown as follows:
Cell Sorting and Flow Cytometry: For flow cytometry analysis, HEK293 cells were trypsinized and resuspended in PBS/1% BSA FACS buffer and analyzed with a Fortessa flow cytometer (Becton Dickinson). A portion of cells were centrifuged and used for the isolation of genomic DNA.
Assays were performed to ascertain HDR efficiency in HEK293-EGIP cells. To this end, a bicistronic construct was used that targets the human AAVS1 locus (FIG. 1A). The bicistronic vector system co-expresses human codon optimized Cas9 driven by the EF1 promoter as well as custom guide RNA (gRNA) consisting of a chimeric crRNA-tracrRNA transcript driven by the Hl promoter. The hspCas9 contains two nuclear localization signals (NLS) at the N-terminus and C-terminus to ensure efficient import of the hspCas9 protein into the nucleus. The hspCas9 open reading frame (ORF) is followed by a regulatory element called WPRE (Woodchuck virus post-transcriptional regulatory element) to boost gene expression and stabilize the mRNA transcript.
The engineered human cell line, EGIP HEK293 was used to monitor HDR efficiency using the bicistronic construct described above and in FIG. 1A. The EGIP HEK293 reporter cell line was purchased from SBI. The HEK293-EGIP cell line harbors a disrupted GFP coding sequence with a stop codon and a 53-bp genomic fragment from the AAVS1 locus. The stable line was generated by lentiviral infection of 293T cells with an EF1alpha promoter to drive the expression of eGFP followed by puromycin selection. The eGFP sequence was modified to insert a 56 nucleotide insert (uppercase) from the human AAVS1 safe harbor site. This sequence contains a stop codon (TAA in red) after amino acid T109 in the eGFP translated sequence. The guide sequences targeted are in bold letters. Upon transfection with the guide and donor, the AAVS1 site within the broken eGFP was cut and the donor construct provided a homologous sequence to repair the eGFP, by removing the stop codon and the AAVS1 insert. Edited cells which had undergone HDR donor repair will generate GFP positive cells. Accordingly, co-transfecting Cas9, gRNA targeting AAVS1 and a AAVS1/EGFP rescue donor restored the sequence by HDR to give GFP+ cells.
The population of GFP positive cells was directly proportional with the efficiency of the homology directed repair (FIG. 1B).
For these assays, two-in-one Cas9-sgRNAs and eGFP donor template vectors were introduced into the HEK293 EGIP cells by electroporation using the Amaxa nucleofector (Lonza) to drive the synthesis of Cas9-sgRNAs and the eGFP donor template. Compounds were added 16 h post transfection followed by media change 48 hours later. Cells were then allowed to propagate for an additional 72 hours before FACS analysis. […]

[2] = tested on: HDR efficiency in HEK-293 EGIP cells; assay: PCR genotyping and gel densitometry quantification of HDR efficiency; type: cell-based, human; details: HEK293-EGIP cells nucleofected with donor template and Cas9-sgRNA; for HDR Editing Efficiency, replicate 1 hdr 1 / HDR Editing Efficiency, replicate 2 hdr 2 / HDR Editing Efficiency, replicate 3 hdr 3 / HDR Editing Efficiency, replicate 4 hdr 4: PCR band densitometry; for HDR Editing Efficiency, Average: average of replicates 1-4
Description: Genomic DNA isolation, PCR Genotyping, and Gel Quantification: Specially designed PCR primer pairs provided another means to assess HDR-mediated genome editing to obtain functional eGFP positive cells. The genotyping PCR primer pair is shown below, corresponding to SEQ ID NOs: 6 and 7. A 219 bp PCR product corresponds to unmodified cells and a 163 bp nucleotide corresponds to modification through HDR. Intensity of these bands on a >2.5% gel allows for estimation of HDR by densitometry using a Bio-Imager. The technique allows for the relative ranking of improvement of HDR by inhibitors. Intensities measured for each lane were normalized by calculating the ratios of PCR bands corresponding to ‘insertions’ divided by ‘total’ (inserted and unmodified). The fold-change was calculated by comparing the ratio of insertions with compound over that without compound.
Another series of experiments compared increase in HDR efficiency following contact with either Scr7 or Compound 1, a DNAPK inhibitor. For these experiments, HEK293-EGIP cells were nucleofected with donor template only or donor template and Cas9-sgRNA. To test the ability of Scr7 and Compound 1 to enhance HDR editing, cells that had been nucleofected with either donor template alone, or donor template and Cas9-sgRNA were administered either Scr7 or Compound 1.
HDR recombination status was ascertained by traditional “end-point” PCR primer genotyping and quantitation based on agarose band intensities. The primers produced distinct amplicons: a 219 bp nucleotide band corresponded to unmodified cells and a 163 bp nucleotide product for HDR event. Intensity of these bands on a >2.5% gel allows for estimation of HDR by densitometry using a Bio-Imager. The technique allows for the relative ranking of conditions for improvement of HDR by inhibitors of NHEJ. The genotyping PCR primer pairs for these assays is shown below.

[3] = tested on: HDR repair pathway in the HEK293-EGIP cell line; assay: Traffic light reporter (TLR) assay, HDR efficiency by FACS (GFP positive cells); type: cell-based, human; details: for increase in the amount of CRISPR-genome edited HEK-EGIP cells: 2.5 μM, 24 hours, in comparison to the gRNA-Cas9 and donor template condition only, FIG. 2A; for GFP positive cells: flow cytometry 10 days post transfection, 10 μM, FIG. 4
[4] = tested on: Serpin A1 gene in Huh7 hepato cellular carcinoma cells; assay: SerpinA1 gene editing assay (KpnI site introduction, PCR and Kpn digest); type: cell-based; details: Huh7 cells nucleofected with gRNA, Cas9 protein, donor repair template; 2.5 pM Compound 1 for three days; vs DMSO; FIG. 5
Experimental: Assays were performed to ascertain the ability of a DNAPK inhibitor to allow for the editing of a target gene. For these assays, the editing of the Serpin A1 gene from M to Z form was assessed. To this end, Huh7 hepato cellular carcinoma cells were nucleofected with gRNA and Cas9 protein, with or without a donor repair template in which a KpnI site was introduced. The nucleofected cells were then cultured in the presence of DMSO or 2.5 pM Compound 1 for three days, following which, the genomic DNA was amplified and assessed for the introduction of the Kpn site.
The assay works as follows: when the SerpinA1 gene is edited, Kpn endonuclease is able to digest the gene fragment, resulting in the appearance of a digested band on a gel only when the SerpinA1 gene is edited. Conversely, when the SerpinA1 is not edited, the Kpn endonuclease is not able cut the gene fragment, and thus there will not be an appearance of a new, digested band on a gel.

Structure (SMILES)	FACS Analysis - Percent HDR enhancement (gRNA-Cas9 + donor), Mean [1] [%]	FACS Analysis - Percent HDR enhancement (gRNA-Cas9 + donor), single replicate [1]	fold increase in the amount of CRISPR-genome edited cells (HDR enhancement) ([1]; 2.5 μM) [fold]	GFP positive cells after transfection of donor repair template and gRNA-Cas9 (qualitative) [1]	HDR Editing Efficiency, replicate 1 hdr 1 [2]	HDR Editing Efficiency, replicate 2 hdr 2 [2]	HDR Editing Efficiency, replicate 3 hdr 3 [2]	HDR Editing Efficiency, replicate 4 hdr 4 [2]	HDR Editing Efficiency, Average [2]	increase in the amount of CRISPR-genome edited HEK-EGIP cells [3]	GFP positive cells [3]	fold better HDR enhancement compared to transfection with Scr7 ([1]; 2.5 μM, two separate experiments in triplicates, FIGS. 2B and 2C) [fold]	gene editing of the SerpinA1 gene (introduction of Kpn site, digested band on gel) [4]	fold increase in HDR enhancement compared to SCR7 ([1]; 10 μM Compound 3, experiments in triplicates, compared to transfection in the presence of SCR7)
Oc1nc(S)nc(/N=C/c2ccccc2)c1/N=C/c1ccccc1 [Scr7, reference compound]	0.32	0.16% and 0.62% and 0.19%	~2.3	increase in GFP positive cells	1.3 and 14.1 and 5.8	18.2 and 22.7 and 21.8	16.6 and 20.2 and 21.3	16.4 and 28.1 and 23	13.125 and 21.275 and 17.975	approximately 30%	about 0.5%	–	–	–
CNC(=O)c1ccnc2c([C@H](C)CNc3cc(-c4cnc(C)nc4)ncn3)cccc12 [Compound 1, (5)-N-methyl-8-(1-((2′-methyl-[4,5′-bipyrimidin]-6-yl)amino)propan-2-yl)quinoline-4-carboxamide]	0.64	0.44% and 6.82% and 0.65%	~4.5	increase in GFP positive cells	8.4 and 4.3 and 4.9	29 and 27.4 (2×)	27.5 and 58.3 and 29.8	27.6 and 40 and 25.1	23.125 and 32.5 and 21.8	approximately 83%	–	2	allowed for gene editing in comparison to the DMSO condition; also recorded: resulted in gene editing of the SerpinA1 gene	–
CNC(=O)c1ccnc2c([C@H](C)CNc3cc(-c4ccc(C)nc4)ncn3)cccc12 [Compound 3]	–	–	–	–	–	–	–	–	–	–	4%	–	–	about 8 fold
